In patent US20140005163A1 (NOVARTIS AG, priority 2010, published 2014):

Tests used:
PI3K beta = target: T1, PI3K beta (Homo sapiens, UniProt P42338); test: PI3K beta kinase assay (Kinase-Glo luminescence); type: biochemical
T1 construct: for the full-length p110-b subunit are generated and fused by overlapping PCR; p85(iSH2) fusion partner (see partner chain) (N); His tag (C); made in house; host or cells: baculovirus; Tn5 (Trichoplusia ni) or TiniPro insect cells
Procedure, shortened: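 Kinase-Glo luminescence after a 60 min room-temperature reaction gives remaining ATP. The reaction holds 25 nM p85(iSH2)-p110β full-length His-tagged construct, 1 μM ATP, 10 μg/mL PI, and eight compound concentrations at 0.45% DMSO final. IC50 values come from a four-parameter logistic fit.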

[1] = system: S6 Ribosomal Protein phosphorylation Ser235/236 in TSC1 null mouse embryo fibroblast (MEF) cells; test: Reverse protein array assay, S6 Ribosomal Protein phosphorylation Ser235/236 in TSC1 null MEF cells; type: cell-based; conditions: 1 h, pS6 ribosomal protein Ser235/236, 60 minutes incubation, read-out: p-S6 IC50
Procedure, shortened: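 TSC1−/− MEFs, seeded and held ≥20 h at 37 °C/5% CO2, were exposed to 8-step serial compound dilutions (0.02% DMSO final; DMSO vehicle control) for 60 min at 37 °C. Cells were then lysed on ice for 10 min and lysates spotted onto reverse protein array chips.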

[2] = system: PKB Ser473 phosphorylation in Rat1-myr-HA-p110 alpha cells; test: Reverse protein array assay, PKB Ser473 phosphorylation in Rat1-myr-p110 alpha cells; type: cell-based; conditions: 0.5 h, pAkt Ser473, 30 minutes compound incubation, read-out: p-PKB IC50
Procedure, shortened: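 After at least 20 h of culture, the p110 isoform-transfected Rat1 lines receive compound in an 8-step dilution series, keeping DMSO at 0.2%, for 30 minutes. Cells are then lysed and lysates arrayed on chips for fluorescence detection of Ser473-phosphorylated PKB.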

T1 sequence (P42338 with tags, fused parts or gaps limits assumed): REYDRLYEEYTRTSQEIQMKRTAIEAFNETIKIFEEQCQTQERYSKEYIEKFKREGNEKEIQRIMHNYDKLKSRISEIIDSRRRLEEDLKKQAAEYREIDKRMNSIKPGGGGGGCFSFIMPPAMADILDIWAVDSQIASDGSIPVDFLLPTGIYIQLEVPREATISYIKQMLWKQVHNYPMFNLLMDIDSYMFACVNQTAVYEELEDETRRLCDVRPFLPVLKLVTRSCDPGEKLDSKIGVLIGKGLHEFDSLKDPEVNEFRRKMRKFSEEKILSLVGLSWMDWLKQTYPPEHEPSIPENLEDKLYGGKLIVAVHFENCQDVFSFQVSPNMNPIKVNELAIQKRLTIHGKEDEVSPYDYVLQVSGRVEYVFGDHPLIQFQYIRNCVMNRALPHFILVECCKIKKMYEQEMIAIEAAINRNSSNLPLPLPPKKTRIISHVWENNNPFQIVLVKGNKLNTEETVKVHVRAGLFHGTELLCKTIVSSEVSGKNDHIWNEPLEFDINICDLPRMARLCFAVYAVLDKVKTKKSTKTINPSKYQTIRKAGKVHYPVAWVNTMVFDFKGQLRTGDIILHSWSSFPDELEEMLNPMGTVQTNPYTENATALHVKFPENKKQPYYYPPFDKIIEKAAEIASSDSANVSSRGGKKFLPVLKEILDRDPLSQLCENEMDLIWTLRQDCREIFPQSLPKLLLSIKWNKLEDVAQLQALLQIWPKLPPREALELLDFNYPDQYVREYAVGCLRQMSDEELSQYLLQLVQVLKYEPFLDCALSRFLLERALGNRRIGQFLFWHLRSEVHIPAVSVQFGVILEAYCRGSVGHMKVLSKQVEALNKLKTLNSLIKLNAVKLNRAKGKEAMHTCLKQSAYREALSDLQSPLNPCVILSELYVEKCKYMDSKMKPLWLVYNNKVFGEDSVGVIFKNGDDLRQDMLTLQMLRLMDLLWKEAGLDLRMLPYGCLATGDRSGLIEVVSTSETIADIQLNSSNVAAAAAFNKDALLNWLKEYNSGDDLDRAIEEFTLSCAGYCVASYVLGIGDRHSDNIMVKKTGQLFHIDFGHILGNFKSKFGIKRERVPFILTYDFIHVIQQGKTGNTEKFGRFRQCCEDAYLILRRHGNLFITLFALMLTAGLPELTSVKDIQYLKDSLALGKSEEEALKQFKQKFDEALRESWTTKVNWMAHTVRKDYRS

Compound	IC50 (PI3K beta) [nM]	IC50 [2] [nM]	IC50 [1] [nM]
CNc1ncc(-c2ccc3ncc4c(c3c2)n(-c2c(C)noc2C)c(=O)n4C)cc1Cl [Example 146.6, 8-(5-Chloro-6-methylamino-pyridin-3-yl)-1-(3,5-dimethyl-isoxazol-4-yl)-3-methyl-1,3-dihydro-imidazo[4,5-c]quinolin-2-one]	281	172	278
Cc1nn(C)cc1-n1c(=O)n(C)c2cnc3ccc(-c4cnc(F)c(N(C)C)c4)cc3c21 [Example 151, 8-(5-Dimethylamino-6-fluoro-pyridin-3-yl)-1-(1,3-dimethyl-1H-pyrazol-4-yl)-3-methyl-1,3-dihydro-imidazo[4,5-c]quinolin-2-one]	21	21	4
CNc1cc(-c2ccc3ncc4c(c3c2)n(-c2cn(C)nc2C)c(=O)n4C)cnc1CO [Example 158.1, 1-(1,3-Dimethyl-1H-pyrazol-4-yl)-8-(6-hydroxymethyl-5-methylamino-pyridin-3-yl)-3-methyl-1,3-dihydro-imidazo[4,5-c]quinolin-2-one]	10	6	8
CNc1cc(-c2ccc3ncc4c(c3c2)n(-c2c(C)nn(C)c2C)c(=O)n4C)cnc1CO [Example 158.4, 8-(6-Hydroxymethyl-5-methylamino-pyridin-3-yl)-3-methyl-1-(1,3,5-trimethyl-1H-pyrazol-4-yl)-1,3-dihydro-imidazo[4,5-c]quinolin-2-one]	112	114	150
CNc1ncc(-c2ccc3ncc4c(c3c2)n(-c2cn(C(C)C)nc2C)c(=O)n4C)cc1CO [Example 171, 8-(5-Hydroxymethyl-6-methylamino-pyridin-3-yl)-1-(1-isopropyl-3-methyl-1H-pyrazol-4-yl)-3-methyl-1,3-dihydro-imidazo[4,5-c]quinolin-2-one]	145	9	3
Cc1nn(C)cc1-n1c(=O)n(C)c2cnc3ccc(-c4cncc(OCCF)c4)cc3c21 [Example 181, 1-(1,3-Dimethyl-1H-pyrazol-4-yl)-8-[5-(2-fluoro-ethoxy)-pyridin-3-yl]-3-methyl-1,3-dihydro-imidazo[4,5-c]quinolin-2-one]	13	51	3
Cc1nn(C)cc1-n1c(=O)n(C)c2cnc3ccc(-c4cncc(OC(CF)CF)c4)cc3c21 [Example 182, 1-(1,3-Dimethyl-1H-pyrazol-4-yl)-8-[5-(2-fluoro-1-fluoromethyl-ethoxy)-pyridin-3-yl]-3-methyl-1,3-dihydro-imidazo[4,5-c]quinolin-2-one]	11	15	5
COc1cc(-c2ccc3ncc4c(c3c2)n(-c2cn(CCO)nc2C)c(=O)n4C)cnc1C [Example 211.1, 1-[1-(2-Hydroxy-ethyl)-3-methyl-1H-pyrazol-4-yl]-8-(5-methoxy-6-methyl-pyridin-3-yl)-3-methyl-1,3-dihydro-imidazo[4,5-c]quinolin-2-one]	18	11	21
Cc1nn(C(C)C)cc1-n1c(=O)n(C)c2cnc3ccc(-c4cncc(C(O)(CF)CF)c4)cc3c21 [Example 219, 8-[5-(2-Fluoro-1-fluoromethyl-1-hydroxy-ethyl)-pyridin-3-yl]-1-(1-isopropyl-3-methyl-1H-pyrazol-4-yl)-3-methyl-1,3-dihydro-imidazo[4,5-c]quinolin-2-one]	49	52	6

Continued, in another order:

IC50 (PI3K beta) [nM]	IC50 [2] [nM]	Compound	IC50 [1] [nM]
162	69	CCNc1ncc(-c2ccc3ncc4c(c3c2)n(-c2c(C)nn(C)c2C)c(=O)n4C)cc1C(F)(F)F [Example 145.1, 8-(6-Ethylamino-5-trifluoromethyl-pyridin-3-yl)-3-methyl-1-(1,3,5-trimethyl-1H-pyrazol-4-yl)-1,3-dihydro-imidazo[4,5-c]quinolin-2-one]	50
207	20	CNc1ncc(-c2ccc3ncc4c(c3c2)n(-c2cn(C(C)C)nc2C)c(=O)n4C)cc1Cl [Example 146.3, 8-(5-Chloro-6-methylamino-pyridin-3-yl)-1-(1-isopropyl-3-methyl-1H-pyrazol-4-yl)-3-methyl-1,3-dihydro-imidazo[4,5-c]quinolin-2-one]	3
114	17	CCNc1ncc(-c2ccc3ncc4c(c3c2)n(-c2cn(C)nc2C)c(=O)n4C)cc1Cl [Example 147, 8-(5-Chloro-6-ethylamino-pyridin-3-yl)-1-(1,3-dimethyl-1H-pyrazol-4-yl)-3-methyl-1,3-dihydro-imidazo[4,5-c]quinolin-2-one]	5.53
33	< 5	Cc1nn(C)cc1-n1c(=O)n(C)c2cnc3ccc(-c4cnc(Cl)c(N)c4)cc3c21 [Example 152.2, 8-(5-Amino-6-chloro-pyridin-3-yl)-1-(1,3-dimethyl-1H-pyrazol-4-yl)-3-methyl-1,3-dihydro-imidazo[4,5-c]quinolin-2-one]	1
29	10	CCNc1cc(-c2ccc3ncc4c(c3c2)n(-c2cn(C)nc2C)c(=O)n4C)cnc1COC [Example 156, 1-(1,3-Dimethyl-1H-pyrazol-4-yl)-8-(5-ethylamino-6-methoxymethyl-pyridin-3-yl)-3-methyl-1,3-dihydro-imidazo[4,5-c]quinolin-2-one]	1
17	< 5	CNc1cc(-c2ccc3ncc4c(c3c2)n(-c2cn(C)nc2Cl)c(=O)n4C)cnc1COC [Example 160.1, 1-(3-Chloro-1-methyl-1H-pyrazol-4-yl)-8-(6-methoxymethyl-5-methylamino-pyridin-3-yl)-3-methyl-1,3-dihydro-imidazo[4,5-c]quinolin-2-one]	< 0.5
81	38	CCOCc1cc(-c2ccc3ncc4c(c3c2)n(-c2cn(CC)nc2C)c(=O)n4C)cnc1N [Example 166.2, 8-(6-Amino-5-ethoxymethyl-pyridin-3-yl)-1-(1-ethyl-3-methyl-1H-pyrazol-4-yl)-3-methyl-1,3-dihydro-imidazo[4,5-c]quinolin-2-one]	2.26
34	20	COCc1cc(-c2ccc3ncc4c(c3c2)n(-c2cn(C(C)C)nc2C)c(=O)n4C)cnc1N [Example 168.1, 8-(6-Amino-5-methoxymethyl-pyridin-3-yl)-1-(1-isopropyl-3-methyl-1H-pyrazol-4-yl)-3-methyl-1,3-dihydro-imidazo[4,5-c]quinolin-2-one]	1
18	9	Cc1nn(C)cc1-n1c(=O)n(C)c2cnc3ccc(-c4cncc(NC(C)C)c4)cc3c21 [Example 177.1, 1-(1,3-Dimethyl-1H-pyrazol-4-yl)-8-(5-isopropylamino-pyridin-3-yl)-3-methyl-1,3-dihydro-imidazo[4,5-c]quinolin-2-one]	2
324	44	COc1cc(-c2ccc3ncc4c(c3c2)n(-c2cn(C(C)C)nc2C)c(=O)n4C)cnc1CO [Example 194.1, 8-(6-Hydroxymethyl-5-methoxy-pyridin-3-yl)-1-(1-isopropyl-3-methyl-1H-pyrazol-4-yl)-3-methyl-1,3-dihydro-imidazo[4,5-c]quinolin-2-one]	20
6	9	COc1cc(-c2ccc3ncc4c(c3c2)n(-c2cn(C)nc2Cl)c(=O)n4C)cnc1CO [Example 194.2, 1-(3-chloro-1-methyl-1H-pyrazol-4-yl)-8-(6-hydroxymethyl-5-methoxy-pyridin-3-yl)-3-methyl-1,3-dihydro-imidazo[4,5-c]quinolin-2-one]	2
77	45	CCOCc1ncc(-c2ccc3ncc4c(c3c2)n(-c2cn(C)nc2Cl)c(=O)n4C)cc1OC [Example 196.1, 1-(3-Chloro-1-methyl-1H-pyrazol-4-yl)-8-(6-ethoxymethyl-5-methoxy-pyridin-3-yl)-3-methyl-1,3-dihydro-imidazo[4,5-c]quinolin-2-one]	10
13	< 5	COc1ncc(-c2ccc3ncc4c(c3c2)n(-c2cn(C)nc2Cl)c(=O)n4C)cc1CO [Example 200, 1-(3-Chloro-1-methyl-1H-pyrazol-4-yl)-8-(5-hydroxymethyl-6-methoxy-pyridin-3-yl)-3-methyl-1,3-dihydro-imidazo[4,5-c]quinolin-2-one]	< 0.5
6	12	COCc1cc(-c2ccc3ncc4c(c3c2)n(-c2cn(C)nc2Cl)c(=O)n4C)cnc1OC [Example 201, 1-(3-Chloro-1-methyl-1H-pyrazol-4-yl)-8-(6-methoxy-5-methoxymethyl-pyridin-3-yl)-3-methyl-1,3-dihydro-imidazo[4,5-c]quinolin-2-one]	1
